Experimental data from patent US20090143279A1 (priority 2007, published 2009).
Like-named read-outs stand apart in the source and are kept apart here.

Experiments:
[1] = system: mitochondrial membrane potential; assay type: cell-based, mouse; conditions: for ΔΨm (composite Z-score): normalized score vs mock-treated (DMSO) wells
reactive oxygen species = assay type: cell-based, mouse; conditions: for ROS (composite Z-score): normalized score vs mock-treated (DMSO) wells
OXPHOS gene expression = assay type: cell-based, mouse; conditions: for GE-HTS (composite Z-score): normalized score vs mock-treated (DMSO) wells
nuOXPHOS transcripts = assay type: cell-based, mouse; conditions: for nucOX (composite Z-score): normalized score vs mock-treated (DMSO) wells
mtOXPHOS transcripts = assay type: cell-based, mouse; conditions: for mitoOX (composite Z-score): normalized score vs mock-treated (DMSO) wells
cytochrome c = assay type: cell-based, mouse; conditions: for cyt c (composite Z-score): normalized score vs mock-treated (DMSO) wells
C2C12 myotubes = conditions: for Viability (composite Z-score): normalized score vs mock-treated (DMSO) wells
[2] = system: cellular dehydrogenase activity; conditions: for MTT (composite Z-score): normalized score vs mock-treated (DMSO) wells
[3] = normalized composite Z-score vs mock-treated (DMSO) wells, Conc 20 μM
[4] = composite Z-score vs DMSO, Conc 20 μM
[5] = composite Z-score vs mock-treated (DMSO) wells, Conc 20 μM
[6] = Table 4, C2C12 myotubes, 48 h, composite Z-score
[7] = composite Z-score vs mock-treated (DMSO) wells, concentration of each compound in μM
[8] = composite Z-score vs DMSO, Conc 15.42 μM

CC1(C)C(=O)C=C[C@]2(C)[C@H]3CC[C@@]4(C)[C@H](c5ccoc5)OC(=O)[C@H]5O[C@]54[C@]3(C)C=C[C@@H]12 [7-desacetoxy-6,7-dehydrogedunin]
ΔΨm [1, 3]: −1.799
ROS (reactive oxygen species; [3]): −3.492
GE-HTS (OXPHOS gene expression; [3]): −1.430
nucOX (nuOXPHOS transcripts; [3]): −0.695
mitoOX (mtOXPHOS transcripts; [3]): −2.631
cyt c (cytochrome c; [3]): 0.198
Viability (C2C12 myotubes; [3]): −0.973
MTT [2, 3]: −1.891

COc1ccc(-c2coc3c(OC)c(O)ccc3c2=O)cc1 [7-hydroxy-8,4′-dimethoxyisoflavone]
ΔΨm [1, 3]: −0.417
ROS (reactive oxygen species; [3]): 1.404
GE-HTS (OXPHOS gene expression; [3]): −0.962
nucOX (nuOXPHOS transcripts; [3]): −0.994
mitoOX (mtOXPHOS transcripts; [3]): −0.667
cyt c (cytochrome c; [3]): 0.363
Viability (C2C12 myotubes; [3]): −1.022
MTT [2, 3]: −1.073

COc1ccc2c(=O)ccoc2c1 [7-methoxychromone]
ΔΨm [1, 4]: −0.875
ROS (reactive oxygen species; [4]): 0.919
GE-HTS (OXPHOS gene expression; [4]): −0.759
nucOX (nuOXPHOS transcripts; [4]): −0.818
mitoOX (mtOXPHOS transcripts; [4]): −0.451
cyt c (cytochrome c; [4]): 0.511
Viability (C2C12 myotubes; [4]): −0.999
MTT [2, 4]: −0.963

COC(=O)C1(C)CCCC2(C)c3ccc(C(C)C)cc3C(=O)CC12 (stereo not drawn) [7-oxocallitrisic acid, methyl ester]
ΔΨm [1, 4]: 2.079
ROS (reactive oxygen species; [4]): 0.162
GE-HTS (OXPHOS gene expression; [4]): −0.876
nucOX (nuOXPHOS transcripts; [4]): −0.457
mitoOX (mtOXPHOS transcripts; [4]): −1.555
cyt c (cytochrome c; [4]): −0.923
Viability (C2C12 myotubes; [4]): 1.266
MTT [2, 4]: 0.111

COc1ccccc1-c1cc(=O)c2cccc(OC)c2o1 [8,2′-dimethoxyflavone]
ΔΨm (composite Z-score) ([1]; Conc 20 μM): 1.282
ROS (composite Z-score) (reactive oxygen species; Conc 20 μM): 1.219
GE-HTS (composite Z-score) (OXPHOS gene expression; Conc 20 μM): −0.593
nucOX (composite Z-score) (nuOXPHOS transcripts; Conc 20 μM): −0.414
mitoOX (composite Z-score) (mtOXPHOS transcripts; Conc 20 μM): −0.811
cyt c (composite Z-score) (cytochrome c; Conc 20 μM): 0.864
Viability (composite Z-score) (C2C12 myotubes; Conc 20 μM): −1.096
MTT (composite Z-score) ([2]; Conc 20 μM): −0.556

CC(=O)C=CC1C(C)(O)CCC2C(C)(C)CCCC21C (stereo not drawn) [8-hydroxy-15,16-bisnor-11-labden-13-one]
ΔΨm [1, 3]: 0.798
ROS (reactive oxygen species; [3]): 0.504
GE-HTS (OXPHOS gene expression; [3]): −0.554
nucOX (nuOXPHOS transcripts; [3]): −0.078
mitoOX (mtOXPHOS transcripts; [3]): −1.430
cyt c (cytochrome c; [3]): 0.550
Viability (C2C12 myotubes; [3]): −1.702
MTT [2, 3]: −0.248

COc1ccc([C@H]2Oc3c(I)c(OC)cc(OC)c3C[C@@H]2O)cc1OC [8-iodocatechin tetramethyl ether, reference compound]
ΔΨm ([1]; Table 4, C2C12 myotubes, 48 h, JC-1, composite Z-score): 0.146
ΔΨm [1, 5]: 0.146
ROS (reactive oxygen species; [6]): −0.448
ROS (reactive oxygen species; [5]): −0.448
GE-HTS (OXPHOS gene expression; [5]): −1.194
nucOX (nuOXPHOS transcripts; [5]): −0.985
mitoOX (mtOXPHOS transcripts; [5]): −1.411
cyt c (cytochrome c; [5]): 0.237
Viability (C2C12 myotubes; [6]): 0.377
Viability (C2C12 myotubes; [5]): 0.377
MTT [2, 6]: −1.359
MTT [2, 5]: −1.359

COC(=O)C[C@H]1C(C)(C)C2(O)OC34CC2C(=O)[C@]1(C)C3CC[C@]1(C)C4=CC(=O)O[C@H]1c1ccoc1 (stereo partly drawn) [8beta-hydroxycarapin, 3,8-hemiacetal]
ΔΨm (composite Z-score) ([1]; Conc 20 μM): −0.251
ROS (composite Z-score) (reactive oxygen species; Conc 20 μM): 1.075
GE-HTS (composite Z-score) (OXPHOS gene expression; Conc 20 μM): 0.600
nucOX (composite Z-score) (nuOXPHOS transcripts; Conc 20 μM): 0.472
mitoOX (composite Z-score) (mtOXPHOS transcripts; Conc 20 μM): 0.789
cyt c (composite Z-score) (cytochrome c; Conc 20 μM): 0.436
Viability (composite Z-score) (C2C12 myotubes; Conc 20 μM): 0.561
MTT (composite Z-score) ([2]; Conc 20 μM): 0.204

CC[C@@]1(O)C(=O)OCc2c1cc1n(c2=O)Cc2cc3cc(O)ccc3nc2-1 [10-hydroxycamtothecin]
ΔΨm (composite Z-score) ([1]; Conc 20 μM): 0.725
ROS (composite Z-score) (reactive oxygen species; Conc 20 μM): −1.681
GE-HTS (composite Z-score) (OXPHOS gene expression; Conc 20 μM): −1.137
nucOX (composite Z-score) (nuOXPHOS transcripts; Conc 20 μM): −1.180
mitoOX (composite Z-score) (mtOXPHOS transcripts; Conc 20 μM): −0.782
cyt c (composite Z-score) (cytochrome c; Conc 20 μM): −2.397
Viability (composite Z-score) (C2C12 myotubes; Conc 20 μM): −1.466
MTT (composite Z-score) ([2]; Conc 20 μM): −2.588

CC(=O)O[C@H]1CC[C@]2(C)[C@H]3C(=O)C=C4[C@@H]5[C@@H](C)[C@H](C)CC[C@]5(C(=O)O)CC[C@@]4(C)[C@]3(C)CC[C@H]2C1(C)C [11-oxoursolic acid acetate]
ΔΨm [1, 3]: −0.524
ROS (reactive oxygen species; [3]): 0.280
GE-HTS (OXPHOS gene expression; [3]): −0.240
nucOX (nuOXPHOS transcripts; [3]): −0.304
mitoOX (mtOXPHOS transcripts; [3]): −0.027
cyt c (cytochrome c; [3]): −1.393
Viability (C2C12 myotubes; [3]): 1.094
MTT [2, 3]: −1.214

CC(C)c1ccc2c(c1)CCC1[C@](C)(CN)CCC[C@]21C.O=S(=O)(O)O (stereo partly drawn) [18-aminoabieta-8,11,13-triene sulfate]
ΔΨm (composite Z-score) ([1]; Conc 20 μM): −0.519
ROS (composite Z-score) (reactive oxygen species; Conc 20 μM): 2.176
GE-HTS (composite Z-score) (OXPHOS gene expression; Conc 20 μM): −0.727
nucOX (composite Z-score) (nuOXPHOS transcripts; Conc 20 μM): −0.771
mitoOX (composite Z-score) (mtOXPHOS transcripts; Conc 20 μM): −0.462
cyt c (composite Z-score) (cytochrome c; Conc 20 μM): 0.507
Viability (composite Z-score) (C2C12 myotubes; Conc 20 μM): −0.143
MTT (composite Z-score) ([2]; Conc 20 μM): −0.762

CC(C)c1c(O)ccc2c1CC[C@H]1[C@@](C)(CO)CCC[C@]21C [19-hydroxytotarol]
ΔΨm [1, 5]: 0.453
ROS (reactive oxygen species; [5]): 1.558
GE-HTS (OXPHOS gene expression; [5]): −0.041
nucOX (nuOXPHOS transcripts; [5]): −0.128
mitoOX (mtOXPHOS transcripts; [5]): 0.086
cyt c (cytochrome c; [5]): 1.305
Viability (C2C12 myotubes; [5]): −0.207
MTT [2, 5]: 1.198

Oc1ccc([C@H]2Oc3cc(O)cc(O)c3C[C@H]2O)cc1 [(2R,3R)-(−)-epiafzelechin]
ΔΨm [1, 4]: −3.118
ROS (reactive oxygen species; [4]): 1.019
GE-HTS (OXPHOS gene expression; [4]): −0.497
nucOX (nuOXPHOS transcripts; [4]): −0.559
mitoOX (mtOXPHOS transcripts; [4]): −0.225
cyt c (cytochrome c; [4]): 0.166
Viability (C2C12 myotubes; [4]): −0.719
MTT [2, 4]: −0.486

CN1CCc2cc3c(cc2[C@H]1[C@@H]1OC(=O)c2c1ccc1c2OCO1)OCO3 [(+)-bicuculline]
ΔΨm [1]: −0.852
ΔΨm [1, 4]: −0.945
ROS (reactive oxygen species): 0.256
ROS (reactive oxygen species; [4]): 0.428
GE-HTS (OXPHOS gene expression; [4]): −0.189
nucOX (nuOXPHOS transcripts; [4]): −0.028
mitoOX (mtOXPHOS transcripts; [4]): −0.495
cyt c (cytochrome c): 0.300
cyt c (cytochrome c; [4]): −0.116
Viability (C2C12 myotubes): −0.190
Viability (C2C12 myotubes; [4]): −0.572
MTT [2]: −1.330
MTT [2, 4]: −0.812

CN1Cc2c(ccc3c2OCO3)[C@@H]2[C@H]1c1cc3c(cc1C[C@@H]2O)OCO3 [(+)-chelidonine]
ΔΨm [1, 7]: −1.123
ROS (reactive oxygen species; [7]): −1.486
GE-HTS (OXPHOS gene expression; [7]): 0.941
nucOX (nuOXPHOS transcripts; [7]): 0.901
mitoOX (mtOXPHOS transcripts; [7]): 0.836
cyt c (cytochrome c; [7]): −1.144
Viability (C2C12 myotubes; [7]): −1.005
MTT [2, 7]: −1.988

COc1ccc([C@@H](C)C(=O)c2ccc(O)cc2O)cc1 [(R)-angolensin]
ΔΨm [1, 5]: −0.444
ROS (reactive oxygen species; [5]): 0.225
GE-HTS (OXPHOS gene expression; [5]): 0.403
nucOX (nuOXPHOS transcripts; [5]): 0.703
mitoOX (mtOXPHOS transcripts; [5]): −0.245
cyt c (cytochrome c; [5]): −0.063
Viability (C2C12 myotubes; [5]): −0.164
MTT [2, 5]: −0.743

CC(C)NC[C@H](O)COc1cccc2ccccc12 [(S)-propranolol]
ΔΨm [1, 8]: −0.340
ROS (reactive oxygen species; [8]): −0.185
GE-HTS (OXPHOS gene expression; [8]): 0.857
nucOX (nuOXPHOS transcripts; [8]): 0.623
mitoOX (mtOXPHOS transcripts; [8]): 1.161
cyt c (cytochrome c; [8]): 0.349
Viability (C2C12 myotubes; [8]): 0.307
MTT [2, 8]: −0.351

COc1ccc([C@H]2COc3c(ccc(O)c3OC)C2)c(OC)c1O [(−)-duartin]
ΔΨm [1, 7]: 0.392
ROS (reactive oxygen species; [7]): 0.900
GE-HTS (OXPHOS gene expression; [7]): −0.048
nucOX (nuOXPHOS transcripts; [7]): −0.331
mitoOX (mtOXPHOS transcripts; [7]): 0.466
cyt c (cytochrome c; [7]): −0.472
Viability (C2C12 myotubes; [7]): 1.175
MTT [2, 7]: −0.571
